4 compounds from patent publication US4873237A, “2,3-dihydro- thiazolo- and thiazino- benzimidazoles as atni-hyper secretion agents” (John Wyeth & Brother Limited, priority 1983, dated 1989) can be followed below.

Assay [1] concerns the target T1, H^+ /K^+ ATPase (Oryctolagus cuniculus, UniProt P27112).
T1 construct: Rabbit gastric glands are isolated from gastric mucosa from the corpus region of the stomach; from tissue; host or cells: rabbit isolated gastric glands (gastric mucosa, corpus region of the stomach)
As to the kind of experiment: 14C-aminopyrine uptake in rabbit isolated gastric glands stimulated by DBcAMP or high K+. The format is cell-based. As to conditions: at 10^-4 M, read-out: % Inhibition to stimulation by K^+. Here is the method: Compounds of formula I were also tested for anti-secretory activity by their ability to inhibit the highly specific proton transporting enzyme H^+ /K^+ ATPase.
Potential H^+ /K^+ ATPase inhibitors were evaluated by a technique involving the measurement of aminopyrine accumulation in rabbit isolated gastric glands. Aminopyrine accumulates in acid-secreting cells; therefore, uptake of aminopyrine is increased by secretagogues and an inhibitor of acid secretion will reduce the response to one or more secretagogues depending upon its site of action. Compounds which reduce the response to dibutyryl cyclic adenosine monophosphate (DBcAMP) stimulation are assumed to have an intracellular site of action; and those which reduce the response to both DBcAMP and high potassium ion concentration (K^+) are thought to have an intracellular site of action at the secretory surface of the parietal cell, involving the highly specific proton-transporting enzyme, H^+ /K^+ ATPase.
The following test procedure is used: […]
Compounds are tested at a concentration of 10^-4 M, initially, and in some cases at lower concentrations, for their ability to inhibit ^14 C-aminopyrine uptake in gastric glands, stimulated by DBcAMP and high K^+ respectively. Results are expressed as the % inhibition of the maximum response to the secretagogue induced by the test compound. […]

The test system of assay [2] is Male rats. As to the kind of experiment: stress-induced erosion test of Senay and Levine (anti-ulcer activity). The format is in vivo. As to conditions: dosed orally, cold restraint 3 hours. As for the experimental part: Anti-ulcer activity was determined by the stressinduced erosion test of Senay and Levine, Proc. Soc. Exp. Biol. Med., 124, 1221-3 (1967). The procedure used was as follows.
Male rats, weighing between 80 and 120 gms. were fasted overnight with water ad lib. The rats were then divided into groups of six and dosed orally with the test drug in the form of a solution or with the vehicle alone, 0.5% carboxymethylcellulose, in a volume of 10ml/kg.
After 30 minutes the rats were inserted into aluminium restraining tubes measuring 15/8 inches in diameter by 5 inches and placed in the cold (4±1° C.) for 3 hours. Immediately after cold exposure the rats were killed with intracranial alcohol and their stomachs excised and opened along the greater curvature. Each stomach was washed gently free of contents with warm tap water and pinned out on a board. The condition of the gastric mucosa was then scored from 0 to 6 on the following scale:
The maximum possible score for each animal was 6 and for the group 36. Decrease in ulcer formation was calculated as a percentage of the control score, i.e. [formula] The statistical significance of the effect is assessed by Student's t-test.

The term inhibition denotes the drop in the measured response relative to a control, in per cent.

T1 sequence (P27112 2-1035 limits assumed): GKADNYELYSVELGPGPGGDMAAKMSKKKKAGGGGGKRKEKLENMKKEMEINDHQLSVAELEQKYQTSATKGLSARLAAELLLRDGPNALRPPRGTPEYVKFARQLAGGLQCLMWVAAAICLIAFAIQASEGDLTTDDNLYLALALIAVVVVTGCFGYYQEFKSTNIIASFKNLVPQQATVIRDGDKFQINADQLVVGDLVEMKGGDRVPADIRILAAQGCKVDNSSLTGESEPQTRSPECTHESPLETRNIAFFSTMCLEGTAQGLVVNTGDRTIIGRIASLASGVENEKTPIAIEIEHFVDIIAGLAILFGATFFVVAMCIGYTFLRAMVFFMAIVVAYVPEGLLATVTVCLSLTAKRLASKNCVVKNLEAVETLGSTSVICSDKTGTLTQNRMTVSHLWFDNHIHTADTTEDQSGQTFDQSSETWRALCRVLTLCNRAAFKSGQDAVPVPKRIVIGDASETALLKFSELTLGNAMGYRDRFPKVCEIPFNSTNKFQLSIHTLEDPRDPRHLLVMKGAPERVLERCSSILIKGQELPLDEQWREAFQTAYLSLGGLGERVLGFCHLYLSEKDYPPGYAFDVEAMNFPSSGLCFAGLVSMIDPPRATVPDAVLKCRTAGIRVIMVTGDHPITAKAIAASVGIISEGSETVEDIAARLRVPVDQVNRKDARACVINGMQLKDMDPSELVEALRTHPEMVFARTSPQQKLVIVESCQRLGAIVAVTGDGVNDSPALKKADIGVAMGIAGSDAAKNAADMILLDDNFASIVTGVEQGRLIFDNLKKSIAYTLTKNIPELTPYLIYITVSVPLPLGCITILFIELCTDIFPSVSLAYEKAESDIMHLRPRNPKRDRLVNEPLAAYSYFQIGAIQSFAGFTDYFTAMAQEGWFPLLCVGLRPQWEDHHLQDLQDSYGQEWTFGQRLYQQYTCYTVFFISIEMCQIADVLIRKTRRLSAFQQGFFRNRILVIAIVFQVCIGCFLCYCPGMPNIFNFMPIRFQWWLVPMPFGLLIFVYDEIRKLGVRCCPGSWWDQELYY
T1 sequence (P18597 whole entry partner): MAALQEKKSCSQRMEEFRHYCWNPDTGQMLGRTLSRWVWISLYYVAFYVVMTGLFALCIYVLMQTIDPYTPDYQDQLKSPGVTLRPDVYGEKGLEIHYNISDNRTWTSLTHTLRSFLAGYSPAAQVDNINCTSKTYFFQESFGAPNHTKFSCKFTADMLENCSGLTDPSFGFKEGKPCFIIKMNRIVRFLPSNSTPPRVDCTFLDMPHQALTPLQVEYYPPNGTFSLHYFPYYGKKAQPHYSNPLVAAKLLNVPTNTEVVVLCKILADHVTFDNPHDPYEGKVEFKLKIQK

In the case of `Clc1cc2nc3n(c2cc1Cl)CC(c1ccccn1)S3` (centres unmarked) [Example 8, 6,7-Dichloro-2,3-dihydro-2-(2-pyridyl)thiazolo[3,2-a]benzimidazole], the inhibition at 100 µM in assay [1] was 74%.
In the case of `Cc1cc2nc3n(c2cc1C)CC(c1ccccn1)S3` (centres unmarked) [Example 9, 2,3-Dihydro-6,7-dimethyl-2-(2-pyridyl)thiazolo[3,2-a]benzimidazole], in assay [2] (dose 100 mg/kg), the “Inhibition (decrease in ulcer formation as percentage of control score)” value amounted to 82%.
Same read-out and setting: to `c1ccc(C2Cn3c(nc4ccccc43)S2)cc1` (centres unmarked) [Example 3, 2,3-Dihydro-2-phenylthiazolo[3,2-a]benzimidazole] belongs 74%.
`c1ccc(C2Cn3c(nc4ccccc43)S2)nc1` (centres unmarked) [Example 1, 2,3-Dihydro-2-(2-pyridyl)thiazolo[3,2-a]benzimidazole]: the “Inhibition (decrease in ulcer formation as percentage of control score)” value is recorded as 86% in assay [2] (dose 30 mg/kg) and 75% in assay [2] (dose 100 mg/kg).
